Measured values taken from patent publication US7608640B2, “Glycine betaine and its use” (priority 2001, dated 2009).

Key:
platelet aggregation = assay: Whole blood platelet aggregation ex vivo (aggregometer); type: in vivo, rat; settings: for Amplitude (platelet aggregation) / Velocity (platelet aggregation): rat, after laser firings, glycine betaine 5 mg/kg, acetylsalicylic acid 100 mg/kg, heparin 2 mg/kg; for Amplitude (platelet aggregation induced ex vivo) / Velocity (platelet aggregation induced ex vivo): 5 mg/kg
Protocol: The aggregation is made in accordance to the methods of Cardinal & Flower. Pharmacol. Method. 1980, and to American Journal of Clinical Pathology, 1989; 92: 676-679, Sureney. J D. Whole Blood aggregometry. After a keeping period of 8 days, the rats are subjected to a fasting for 12 hours. […] The rats are then anaesthetised with sodium Thiopental administered at a dose of 200 mg/Kg and the blood samples are taken by intracardiac puncture on a trisodium citrate solution (1 volume of solution at 3.8% citrate for 9 volumes of blood).

[1] = test system: platelet aggregation induced with ADP; assay: Aggregation induced with ADP; type: in vivo, rat; settings: ADP 5 μM
Protocol: (§1) The aggregation is made in accordance to the methods of Cardinal & Flower. Pharmacol. Method. 1980, and to American Journal of Clinical Pathology, 1989; 92: 676-679, Sureney. J D. Whole Blood aggregometry. After a keeping period of 8 days, the rats are subjected to a fasting for 12 hours. Betaine is subcutaneously injected one hour before blood sampling. The rats are then anaesthetised with sodium Thiopental administered at a dose of 200 mg/Kg and the blood samples are taken by intracardiac puncture on a trisodium citrate solution (1 volume of solution at 3.8% citrate for 9 volumes of blood).
• This example evaluated aggregation induced with ADP. • Final ADP concentration 5 μM

[2] = test system: venous thrombosis induced by stasis (lower vena cava ligature); assay: Stasis-induced venous thrombosis, clot weight; type: in vivo, rat
Protocol: B/Stasis-induced Thrombosis A laparotomy was performed to open the lower vena cava, on which a ligature was placed at T0, followed by subcutaneous injection of glycine betaine at T0+2 hours, followed by withdrawal of the clot and blood samples at T0+6 hours. Male Wistar rats were used for these tests. They weighed between 200 and 250 grams. After an 8-day stabilisation period, the rats were subjected to fasting for 12 hours. They were then anaesthetised, glycine betaine was administered subcutaneously, and the mesentery (laser) or vena cava (stasis) was opened at the end of the experiments.

[3] = test system: arterial thrombosis induced by laser beam in the mesenteric microcirculation of the rat; assay: Laser-induced thrombosis in the mesenteric microcirculation; type: in vivo; settings: oral 50 mg/kg
[4] = test system: platelet aggregations induced by ADP, collagen, epinephrine, adrenaline, thrombin, ristocetine, arachidonic acid; assay: Human in vivo test, induced platelet aggregations in heavy smokers; settings: two heavy smokers, oral capsules 5 g/day during 7 days
Protocol: This example describes a human in vivo test. Two volunteers (with a weight of about 70-75 kg), considered as heavy smokers (smoking more than 10 cigarettes/day) have orally taken capsules (gastro soluble) containing 5 g anhydrous glycine betaine/day during 7 days. Before administration of the betaine, the aggregations induced by ADP, by collagen, by epinephrine, by adrenaline, by thrombin, by ristocetine and by arachidonic acid were determined. After one week of treatment, the same platelet aggregations were measured. It appeared from said tests that all the induced platelet aggregations were reduced for all said endogenous agonists of at least 30%. Better results are expected when using oral dosage form with controlled release, such as gastro insoluble, but entero soluble form.

[5] = test system: induced haemorrhage in rats; assay: Anti-haemorrahgic activity with aspirin or heparin; type: in vivo, rat; settings: glycine betaine 2-50 mg given with 100 mg aspirin or 2 mg heparin, versus aspirin or heparin alone
Protocol: This example tested anti-haemorrahgic activity using rats. Some rats received an active agent with haemorrahgic side effect, while other rats received said active agent together with a dose of betaine.
The following products were administered to rats for determining whether glycine betaine has an anti-haemorrahgic effect: • 100 mg aspirin per kg life body • 100 mg aspirin+50 mg glycine betaine per kg life body • 2 mg heparin • 2 mg heparin+50 mg glycine betaine • 2 mg heparin+10 mg glycine betaine • 2 mg heparin+2 mg glycine betaine

coagulation factors = assay: Plasminogenesis, coagulation and anti Xa in the stasis-induced thrombosis model; type: in vivo, rat
Protocol: A laparotomy was performed to open the lower vena cava, on which a ligature was placed at T0, followed by subcutaneous injection of glycine betaine at T0+2 hours, followed by withdrawal of the clot and blood samples at T0+6 hours.

[6] = test system: platelet aggregation induced with collagen; assay: Aggregation induced with collagen; type: in vivo, rat; settings: collagen 10 μgr/ml
Protocol: as §1
• This example evaluates aggregation induced with collagen. • Collagen concentration 10 μgr/ml

[7] = value taken for the deconvolution technique; cited from earlier work
[8] = test system: intrinsic coagulation pathway; assay: Activated coagulation time (kaolin); type: in vivo, rat
Description: Activated Coagulation Time (Kaolin)
This test explores the intrinsic coagulation pathway. […] These tubes contain the kaolin activator. (Method HaemoTec., automated coagulation timer manufactured by MEDTRONIC HAEMOTEC Inc., Englewood, Colo., USA).

[9] = Group I: injected 1 hour before
[10] = Group II: injected 2 hours before
[11] = Group III: injected 3 hours before
[12] = Group IV: injected 4 hours before

Heparin
Amplitude (platelet aggregation) (platelet aggregation): 4.33 ± 0.57 ohms | Velocity (platelet aggregation) (platelet aggregation): 2.66 ± 0.50 ohms/min

C[N+](C)(C)CC(=O)O [Glycine betaine]
Amplitude ([1]; 2.5 mg/kg): 13 +/− 0.82 ohms | Velocity ([1]; 2.5 mg/kg): 5.75 +/− 0.96 ohm/minute | Amplitude ([1]; 5 mg/kg): 7.25 +/− 0.96 ohms | Velocity ([1]; 5 mg/kg): 4.75 +/− 0.5 ohm/minute | Amplitude ([1]; 10 mg/kg): 0 +/− 0 ohms | Velocity ([1]; 10 mg/kg): 0 +/− 0 ohm/minute | Clot weight ([2]; 1 mg/kg s.c.): 3.1 ± 0.4 mg | Clot weight ([2]; 2.5 mg/kg s.c.): 1.63 ± 0.76 mg | Clot weight ([2]; 5 mg/kg s.c.): 0.76 ± 0.4 mg | Number of emboles ([3]; 1 hour): 0 +/− 0 | Embolisation time ([3]; 48 hours): 2 ± 0 min | Number of laser firing ([3]; 48 hours): 2.33 +/− 0.57 | Reduction of induced platelet aggregations (all agonists) [4]: at least 30% | Bleeding time after induced haemorrhage [5]: bleeding time was reduced | Amplitude (platelet aggregation induced ex vivo) (platelet aggregation; [9]): 11.33 ± 3.08 Ohms | Velocity (platelet aggregation induced ex vivo) (platelet aggregation; [9]): 8.2 ± 0.2 ohm/minute | Amplitude (platelet aggregation induced ex vivo) (platelet aggregation; [10]): 13.2 ± 3.5 Ohms | Velocity (platelet aggregation induced ex vivo) (platelet aggregation; [10]): 9.3 ± 1.8 ohm/minute | Amplitude (platelet aggregation induced ex vivo) (platelet aggregation; [11]): 12.7 ± 4.1 Ohms | Velocity (platelet aggregation induced ex vivo) (platelet aggregation; [11]): 8.7 ± 1.3 ohm/minute | Amplitude (platelet aggregation induced ex vivo) (platelet aggregation; [12]): 13 ± 2.8 Ohms | Velocity (platelet aggregation induced ex vivo) (platelet aggregation; [12]): 8.7 ± 1.15 ohm/minute | Amplitude (platelet aggregation) (platelet aggregation): 0.66 ± 1.15 ohms | Velocity (platelet aggregation) (platelet aggregation): 1.66 ± 1.15 ohms/min | ACT (coagulation factors; 1 mg/kg): 29.1 ± 2.3 s | Anti Xa (coagulation factors; 1 mg/kg): 0.08 ± 0.1 units/ml | Fibrinogen (coagulation factors; 1 mg/kg): 2.63 ± 0.3 g/L | Plasminogenesis (coagulation factors; 1 mg/kg): 2.44 ± 0.58% | Quick time (coagulation factors; 1 mg/kg): 16.2 ± 1.2 s | ACT (coagulation factors; 2.5 mg/kg): 31.2 ± 2.6 s | Anti Xa (coagulation factors; 2.5 mg/kg): 0.14 ± 0.10 units/ml | Fibrinogen (coagulation factors; 2.5 mg/kg): 2.2 ± 0.17 g/L | Plasminogenesis (coagulation factors; 2.5 mg/kg): 2 ± 0.15% | Quick time (coagulation factors; 2.5 mg/kg): 16.6 ± 0.7 s | ACT (coagulation factors; 5 mg/kg): 33.5 ± 1.9 s | Anti Xa (coagulation factors; 5 mg/kg): 0.35 ± 0.15 units/ml | Fibrinogen (coagulation factors; 5 mg/kg): 2.32 ± 0.33 g/L | Plasminogenesis (coagulation factors; 5 mg/kg): 1.66 ± 0.58% | Quick time (coagulation factors; 5 mg/kg): 15.6 ± 0.4 s | Amplitude ([6]; 2.5 mg/kg): 13.75 +/− 0.96 ohms | Velocity ([6]; 2.5 mg/kg): 9.25 +/− 2.63 ohm/minute | Amplitude ([6]; 5 mg/kg): 5.5 +/− 1.29 ohms | Velocity ([6]; 5 mg/kg): 4.5 +/− 1 ohm/minute | Amplitude ([6]; 10 mg/kg): 1.5 +/− 1.29 ohms | Velocity ([6]; 10 mg/kg): 2 +/− 0.82 ohm/minute | Elimination half life [7]: 7.8 h | Activated coagulation time ([8]; 10 mg/kg subcutaneous): 128 s | Activated coagulation time ([8]; 10 mg/kg subcutaneous, after 24 hours): 71 ± 3.51 s | Activated coagulation time ([8]; 20 mg/kg subcutaneous, after 24 hours): 154.66 ± 11.01 s | Activated coagulation time ([8]; 30 mg/kg subcutaneous): 179 s | Activated coagulation time ([8]; 50 mg/kg subcutaneous): 215 s | Activated coagulation time relative to control ([8]; 50 mg/kg subcutaneous): four times higher | Activated coagulation time ([8]; oral 50 mg/kg, 1 hour): 96 ± 11.27 s | Activated coagulation time ([8]; oral 50 mg/kg, 6 hours): 124.66 ± 9.29 s | Activated coagulation time ([8]; oral 50 mg/kg, 24 hours): 64.66 ± 7.37 s | Activated coagulation time ([8]; oral 50 mg/kg, 48 hours): 55.66 ± 7.02 s
